Molecules are shown by their SMILES.

Here are results for 23 compounds from ChEMBL document CHEMBL3612015, “Coumarins as anticancer agents: a review on synthetic strategies, mechanism of action and SAR studies” (Eur J Med Chem, 2015).

Series [1] has as its target Proto-oncogene tyrosine-protein kinase Src (Homo sapiens, UniProt P12931). Kind of series: Inhibition of His6-tagged Src kinase domain (unknown origin) using AEEEIYGEFEAKKKK as substrate preincubated for 10 mins followed by substrate/ATP addition measured after 30 mins by fluorescence assay.
For a further series, the system named is CAKI-1. Kind of series: Cytotoxicity against human CAKI-1 cells assessed as cell growth after 48 hrs by SRB assay relative to control. In kind it is functional. (In general: Sulforhodamine B stains cellular protein and so reports cell mass.)
A further series has as its system UO-31. Kind of series: Cytotoxicity against human UO31 cells assessed as cell growth after 48 hrs by SRB assay relative to control. Format: functional.
Series [2] is described as follows: Cytotoxicity against human NCI60 cells assessed as cell growth after 48 hrs by SRB assay. Format: functional.
The subject of the next series is NCI-H522. Kind of series: Cytotoxicity against human NCI-H522 cells assessed as cell growth after 48 hrs by SRB assay relative to control. Format: functional.
Another series relates to MDA-MB-231. In words: Cytotoxicity against human MDA-MB-231 cells assessed as cell growth after 48 hrs by SRB assay relative to control. In kind it is functional.
A further series deals with SK-OV-3. Kind of series: Cytotoxicity against human SKOV3 cells assessed as cell proliferation after 72 hrs by CellTiter 96 aqueous one solution cell proliferation assay relative to control. In kind it is functional.
For series [3], the system named is MCF7. In words: Cytotoxicity against human MCF7 cells assessed as cell proliferation after 72 hrs by CellTiter 96 aqueous one solution cell proliferation assay relative to control. In kind it is functional.
Another series relates to MDA-MB-468. In words: Cytotoxicity against human MDA-MB-468 cells assessed as cell proliferation after 72 hrs by CellTiter 96 aqueous one solution cell proliferation assay relative to control. Format: functional.
Series [4] has as its system MCF7. Kind of series: Cytotoxicity against human MCF7 cells assessed as growth inhibition at 10 uM after 48 hrs by MTT assay relative to control. In kind it is functional. As to conditions: MCF7, 48 h, read-out: GI. In general terms: Tetrazolium dyes change colour on reduction, which living cells bring about.
In series [5] the test system is MCF7. In words: Cytotoxicity against human MCF7 cells assessed as growth inhibition at 50 uM after 48 hrs by MTT assay relative to control. In kind it is functional. To be noted: MCF7, 48 h, read-out: GI.
The subject of series [6] is MCF7. Kind of series: Cytotoxicity against human MCF7 cells assessed as growth inhibition at 200 uM after 48 hrs by MTT assay relative to control. As to conditions: MCF7, 48 h, read-out: GI. In kind it is functional.
For series [7], the system named is MCF7. Kind of series: Cytotoxicity against human MCF7 cells assessed as growth inhibition at 100 uM after 48 hrs by MTT assay relative to control. In kind it is functional. As to conditions: MCF7, 48 h, read-out: GI.
Series [8] can be described thus: Cytotoxicity against rat CRL1548 cells after 48 hrs by crystal violet dye-binding assay. Format: functional. To be noted: CRL1548, 48 h, read-out: LD50 (the source's name).
A short description of series [9]: Cytotoxicity against rat CRL1439 cells after 48 hrs by crystal violet dye-binding assay. In kind it is cell-based. To be noted: read-out: LD50.
A further series concerns A549. Kind of series: Cytotoxicity against human A549 cells after 48 hrs by crystal violet dye-binding assay. Format: functional. To be noted: A549, 48 h, read-out: LD50 (the source's name).
The subject of series [10] is HeLa. Kind of series: Cytotoxicity against human HeLa cells assessed as growth inhibition after 72 hrs by MTT assay. In kind it is functional, cell-based.
For a further series, the system named is HepG2. Kind of series: Cytotoxicity against human HepG2 cells assessed as growth inhibition after 72 hrs by MTT assay. In kind it is functional, cell-based. As to conditions: HepG2, 72 h.
The next series relates to SW-620. Kind of series: Cytotoxicity against human SW620 cells assessed as growth inhibition after 72 hrs by MTT assay. In kind it is functional, cell-based. To be noted: SW-620, 72 h.
Series [11] deals with MCF7. Kind of series: Cytotoxicity against human MCF7 cells after 48 hrs by MTT assay. Format: functional, cell-based. As to conditions: MCF7, 48 h.
Series [12] deals with MCF7. In words: Cytotoxicity against human MCF7 cells after 48 hrs by trypan blue assay. In kind it is functional, cell-based. As to conditions: MCF7, 48 h.
The next series deals with KETR3. Kind of series: Cytotoxicity against human Ketr3 cells after 72 hrs by MTT assay. Format: functional, cell-based. As to conditions: KETR3, 72 h.
The test system of series [13] is MCF7. Kind of series: Cytotoxicity against human MCF7 cells after 72 hrs by MTT assay. Format: functional, cell-based. To be noted: MCF7, 72 h.
Series [14] concerns HeLa. Kind of series: Cytotoxicity against human HeLa cells after 72 hrs by MTT assay. In kind it is functional, cell-based.
Another series has as its system A2780. In words: Cytotoxicity against human A2780 cells after 72 hrs by MTT assay. Format: functional, cell-based. As to conditions: A2780, 72 h.
For series [15], the system named is Paracentrotus lividus. Kind of series: Antimitotic activity in sea urchin embryo assessed as cleavage alterations. Format: functional.
Series [16] is described as follows: Cytotoxicity against human NCI60 cells assessed as cell growth. Format: functional.
Series [17] concerns Paracentrotus lividus. Kind of series: Antimitotic activity in sea urchin embryo assessed as embryo spinning. In kind it is functional.
Series [18] deals with Paracentrotus lividus. Kind of series: Antimitotic activity in sea urchin embryo assessed as cleavage arrest. In kind it is functional.
A short description of series [19]: Cytotoxicity against human Hep2 cells. In kind it is functional, cell-based. As to conditions: HEp-2.
A further series deals with Vero. Kind of series: Cytotoxicity against African green monkey Vero cells. Format: cell-based. As to conditions: Chlorocebus sabaeus.
In series [20] the test system is U-937. Kind of series: Cytotoxicity against human U937 cells assessed as decrease in cell viability after 48 hrs. In kind it is functional. As to conditions: U-937, 48 h.
For series [21], the system named is U-937. In words: Antiproliferative activity against human U937 cells after 3 days. Format: functional, cell-based. As to conditions: U-937, 72 h.

Chain of Proto-oncogene tyrosine-protein kinase Src (P12931 2-536 limits assumed): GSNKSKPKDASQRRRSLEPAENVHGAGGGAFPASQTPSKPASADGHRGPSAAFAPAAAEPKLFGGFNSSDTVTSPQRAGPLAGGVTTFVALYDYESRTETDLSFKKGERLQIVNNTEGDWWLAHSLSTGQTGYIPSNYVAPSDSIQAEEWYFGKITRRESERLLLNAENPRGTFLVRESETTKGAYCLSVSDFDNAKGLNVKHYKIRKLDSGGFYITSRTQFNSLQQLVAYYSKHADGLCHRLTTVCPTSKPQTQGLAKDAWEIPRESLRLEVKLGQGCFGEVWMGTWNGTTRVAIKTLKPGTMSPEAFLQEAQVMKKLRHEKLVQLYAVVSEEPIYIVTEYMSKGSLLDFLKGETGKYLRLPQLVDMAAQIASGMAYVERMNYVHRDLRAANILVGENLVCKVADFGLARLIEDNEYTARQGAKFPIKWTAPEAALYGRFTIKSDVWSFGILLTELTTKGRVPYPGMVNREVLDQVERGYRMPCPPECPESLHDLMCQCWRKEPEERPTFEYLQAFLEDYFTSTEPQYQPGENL

The compound `Nc1ccc2c(C(F)(F)F)cc(=O)oc2c1` showed an IC50 in [1] of 30.9 µM.

As to `O=c1oc2ccccc2cc1C1=NN(c2ccccc2)C(c2ccc(O)cc2)C1` (stereo unspecified), the Activity in the series with CAKI-1 is on record as -65.18%; in the series with UO-31, -63.77%; in series [2], 77.59%; with NCI-H522 it was -67.37%; in the series on MDA-MB-231 it was -67.37%.

In turn, `CCCCCCc1c(C)c2ccc(N(CC)CCCC(=O)O)cc2oc1=O` showed an IC50 in [1] of 36.5 µM.

In turn, `CCCCCCCCCCc1c(C)c2ccc(N(CC)CCCC(=O)O)cc2oc1=O` showed an IC50 in series [1] of 21.6 µM.

In series [1], `CCCCCCCCCCc1c(C)c2ccc(N)cc2oc1=O` had an IC50 of 73.5 µM.

Consider `CCc1c(C)c2cc3c(c(O)c2oc1=O)OC(C)(C)CC3`, for which the Activity in the series on SK-OV-3 is reported as 30%; with MCF7 [3], 45%; in the series on MDA-MB-468, 85%.

Turning to `CCCCCCCCCCc1c(C)c2cc3c(c(O)c2oc1=O)OC(C)(C)CC3`, the Activity in the series with SK-OV-3 was determined as 35%; in the series with MCF7 [3], 57%; in the series on MDA-MB-468, 36%.

On to `C=CCOc1cc2oc(=O)cc(-c3nc4ccccc4s3)c2cc1OCC=C`, for which, in the series with MCF7 [4], the inhibition of growth at 10 µM worked out at 18.5%. Besides, the inhibition of growth at 50 µM in the series on MCF7 [5] is 25.3%. The inhibition of growth at 200 µM in the series on MCF7 [6] was determined as 70.3%. Moreover, the inhibition of growth at 100 µM in the series on MCF7 [7] was 43.8%.

Consider `CC(=O)Oc1ccc(-c2c(-c3ccccc3)c3ccccc3oc2=O)cc1`, for which the CC50 in [8] was over 100 µM; in the series with A549 it was 89.3 µM. In [9], the CC50 at 48 h is over 100 µM.

As to `CCN(CC)c1ccc2c(C)c(-c3ccc(OC(C)=O)cc3)c(=O)oc2c1`, the figures for the CC50 (in series [8]; in the series on A549) were 45.1 µM and 48.1 µM, respectively. Also, in series [9], the CC50 at 48 h amounted to 49.1 µM.

`COc1ccc2c(Cn3cnc(C(N)=O)n3)cc(=O)oc2c1`: in the series on HeLa [10], the IC50 was determined as 35.5 µM.

Consider `Nc1nc(Cl)c2cnn(Cc3cc(=O)oc4cc(O)ccc34)c2n1`, for which the results for the IC50 in the series on HeLa [10], in the series on HepG2 and with SW-620 were 34 µM, 25.6 µM and 35.4 µM, respectively.

Take `Cc1cc(C(=O)c2ccccc2Br)ccc1OCC(=O)NNC(=O)c1cc2ccccc2oc1=O`: the figures for the IC50 in the series on MCF7 [11] and in the series on MCF7 [12] were 7.6 µM and 7.7 µM, respectively.

Take `Cc1ccc(C(=O)c2cc(F)c(OCC(=O)NNC(=O)c3cc4ccccc4oc3=O)c(Cl)c2)cc1`: the IC50 in the series with MCF7 [11] is 9.3 µM; in the series with MCF7 [12] it was 9.4 µM.

As for `Cc1cc(C(=O)c2ccc(Cl)cc2Cl)ccc1OCC(=O)NNC(=O)c1cc2ccccc2oc1=O`, the IC50 is 10.2 µM in the series on MCF7 [11] and 10.4 µM in the series on MCF7 [12].

Take `CO[C@@H]1[C@@H](N)[C@@H](O)[C@H](Oc2ccc3cc(NC(=O)c4ccccc4)c(=O)oc3c2Cl)OC1(C)C`: the IC50 in the series on KETR3 stood at 14.6 µM; with MCF7 [13] it was 13.8 µM; with HeLa [14] it was 5.35 µM; in the series with A2780, 2.83 µM.

Consider `CO[C@@H]1[C@@H](N)[C@@H](O)[C@H](Oc2ccc3cc(NC(=O)c4ccccc4)c(=O)oc3c2C)OC1(C)C`, for which the IC50 with KETR3 was 2.14 µM; in the series on MCF7 [13], 8.12 µM; in the series with HeLa [14], 2.89 µM; in the series on A2780, 7.52 µM.

In the case of `COc1ccc(-c2cc3cc(OC)c(OC)c(OC)c3oc2=O)cc1`, the EC in the series with Paracentrotus lividus [15] is 0.2 µM; in the series on Paracentrotus lividus [17], over 5 µM; in the series on Paracentrotus lividus [18], 4 µM. In [16], the GI50 came out at 3.98 µM.

Consider `Cc1cc(=O)oc2ccc(OCNc3ccc(F)cc3)cc12`, for which the results for the IC50 (in series [19]; in the series on Vero) were 3.62 µM and 30.7 µM, respectively.

With `Cc1cc(=O)oc2ccc(OCNc3ccccc3O)cc12`, the IC50 is 4.2 µM in [19] and 22.9 µM in the series with Vero.

With `COc1ccccc1NCOc1ccc2oc(=O)cc(C)c2c1`, the IC50 came to 5.43 µM in series [19] and 21.3 µM in the series on Vero.

Regarding `Cc1cc(=O)oc2cc(O)c(O)cc12` [4-METHYLESCULETIN], the CC50 in the series on U-937 [20] amounted to 76 µM.

In the case of `O=c1ccc2ccc(O)c(O)c2o1` [DAPHNETIN], in the series with U-937 [20], the CC50 stood at 120 µM. This compound gave an IC50 in the series with U-937 [21] of 83.2 µM.

By IC50 is commonly meant the concentration that gives 50% inhibition. One may read the GI50 as the concentration at which growth is held to half of that of the control.
